# Values joined by “and” are separate entries in the source; they are usually repeats but may differ in a detail not shown here. Identical values can stand only once.
# Tests used:
# U87 flank tumors = test: U87 flank tumor growth, QST with or without IR; format: in vivo, athymic nude mice; conditions: for flank tumor volume: U87, individual mice
# Description: We next examined whether QST treatment alone or in combination with IR would be effective in slowing tumor growth in a flank model of GBM (U87). Tumor-bearing mice receiving IR were treated with 2-Gy fractions on Monday, Wednesday, and Friday (MWF) 2 hours after dosing with either vehicle solution or QST (10 mg/kg), for a total dose of 6 Gy. Following completion of IR, mice continued to receive vehicle or QST until the tumors reached the maximum volume threshold (Figure 5C). […] The mean tumor volume in mice with combination treatment was approximately 4.5-fold less than that in vehicle-treated mice at study completion (Figure 5D). […]
# Rad225XL irradiator (Precision X -Ray).
# For flank implantations, cells were pre pared in a 1:1 ratio with 100 uL Matrigel (Corning […]
# syringe fitted with a 26 -gauge needle. Mice were anesthetized with isoflurane in a plastic desiccator placed in an ex ternally vented fume hood. The U87 -Matrigel cell suspension was then subcutaneously injected into the flank of the mouse on the posterior/lateral aspect of the lower rib cage. Mice were monitored daily , and growth of flank tumor area was measured with a di gital caliper (ThermoFisher) twice a week. […]
# Preparation of QST for In Vivo Use
# For in vivo preparation, QST was dissolved in 50% polyethylene glycol (PEG) 300, 50% sterile water solution for 10 mg/kg dosing. The suspension was then sonicated for 10 minutes to allow the drug to completely dissolve. Finally, the pH of both the drug and the vehicle solutions was adjusted to 7.4 before intraperitoneal dosing. […]
# In Vivo Irradiation Studies
# Intracranial or flank tumor–bearing nude mice were sedated with gaseous isoflurane before
# IR. On the first week of treatment, 2 hours after treatment with QST or vehicle, the mice were […]
# treated with 2 Gy of ionizing radiation on MWF for a total 6 Gy (3 doses). Ionizing radiation was administered with the RS2000 series biological research irradiator (Rad Source Technologies).
# Treatment of Flank-Implanted Mice with QST and/or Radiation
# Implanted flank tumors were allowed to grow until the tumor size reached 100 mm3 volume. Mice were randomized into groups before treatment and underwent treatment on MWF for the entire duration of the experiment until the tumor volumes exceeded 2000 mm3. Treatment groups included vehicle (50% PEG-300), QST alone (10 mg/kg), flank IR treatment with vehicle (2 Gy), and flank IR treatment (2 Gy) with QST (10 mg/kg). For mice receiving IR treatment with or without QST, mice were treated with 2 Gy on MWF for a total 6 Gy during the first week of treatment. QST was administered to mice through intraperitoneal injections 2 hours before flank tumor radiation treatment. Upon completion of the radiation regimen, IR-treated mice subsequently received QST or vehicle alone for the rest of the experiment. Tumor growth and treatment response were monitored by manually measuring the tumor area twice per week starting at 13 days after implantation. Upon reaching the tumor volume threshold (2000 mm3), mice were sacrificed, and plasma and tissue samples were harvested for PD and PK analyses 2 hours after treatment with a final dose of QST (10 mg/kg).
# Treatment of Mice with Intracranially Implanted QST and/or Radiation
# Mice with implanted tumors were allowed to grow until the tumor bioluminescence score reached […] radiance (p/s/[…]/sr). Mice were randomized into groups before treatment. For survival studies, mice underwent treatment on MWF for the entire duration of the experiment until moribund. For mice receiving IR treatment with or without QST, mice were treated with 2
# [1] = Stability in human plasma at 37°C; format: in vitro ADME; conditions: for %stability in human plasma, mean / stability in human plasma, [QST], % of control: 37 C; for %stability in human plasma, mean: mean of 3; for stability in human plasma, [QST], % of control: single data points
# Description: Hydroxamic acid–based compounds have been reported to display poor stability and high plasma clearance due to the presence of arylesterases and carboxylesterases in rodent blood ([34]). Therefore, we measured the stability of QST in mouse plasma and brain to determine whether drug degradation occurred during our sample preparations and equilibrium dialyses for the determination of unbound drug level (performed at 37°C). […] QST degradation was also observed in mouse brain homogenate (Figure 6B). However, perfusion of mice before brain collection prevented rapid drug degradation in the brain matrix. […] Degradation of QST can also be constrained if plasma and brain samples are processed at 4°C (Supplemental Figure 4A). All subsequent sample preparations were therefore performed on ice-cold baths to avoid degradation of QST in our PK analyses. […] The observed stability is probably due to the absence of esterases in human matrices, which are responsible for degradation of QST ([34]). Because we employed QST in several in vitro studies (Figures 1–4), the stability of the molecule was also tested in the cell media used to culture GSCs (neurobasal medium; see Methods).
# Stability Study in Mouse Plasma, Mouse Brain, Human Plasma, Human Brain, and Neural […]
# The stability of QST was determined in BALB/c mouse plasma, male nude athymic perfused and nonperfused mouse brain homogenate (1:9 w/v of PBS; pH 7.4), human brain (obtained from VRL Eurofins) homogenate (1:4 w/v of PBS; pH 7.4), pooled human plasma (Innovative Research), and neurobasal media. QST stock solutions (1 mM) were prepared in acetonitrile, subsequently diluted in a 40% methanol mixture, and added t o the matrices to make final concentrations of 100 nM or 10 nM. Then 50 or 30 µL of either plasma or brain homogenate containing QST were aliquoted into 1.5-mL microcentrifuge tubes (Eppendorf) and were incubated at either 4 °C or 37 °C for 0, 2, 4, 6, 12, or 24 hours (n = 3 at each time point). […]
# Plasma and brain […]
# homogenate samples were stored at −80 °C until LC-MS/MS analysis. […]
smiles,measurement,setting,value
"Cn1cc(CNCC2CCN(c3ncc(C(=O)NO)cn3)CC2)c2ccccc21 [QST, quisinostat]",flank tumor volume,"U87 flank tumors; Combo 10 mg/kg Qstat + 6 Gy IR, day 13 post injection",51.304 mm^3 and 81.733 mm^3 and 83.824 mm^3 and 92.512 mm^3 and 72.03 mm^3 and 53.016 mm^3 and 98.75 mm^3 and 120.094 mm^3
same,flank tumor volume,"U87 flank tumors; Combo 10 mg/kg Qstat + 6 Gy IR, day 17 post injection",65.596 mm^3 and 96.768 mm^3 and 135.816 mm^3 and 150.381 mm^3 and 167.445 mm^3 and 67.228 mm^3 and 109.551 mm^3 and 200.688 mm^3
same,flank tumor volume,"U87 flank tumors; Combo 10 mg/kg Qstat + 6 Gy IR, day 27 post injection",91.2925 mm^3 and 64 mm^3 and 59.048 mm^3 and 123.008 mm^3 and 158.112 mm^3 and 72.5 mm^3 and 139.707 mm^3 and 397.373 mm^3
same,flank tumor volume,"U87 flank tumors; Combo 10 mg/kg Qstat + 6 Gy IR, day 31 post injection",237.141 mm^3 and 56.316 mm^3 and 42.768 mm^3 and 189.216 mm^3 and 218.05 mm^3 and 112.694 mm^3 and 312.188 mm^3 and 612.562 mm^3
same,flank tumor volume,"U87 flank tumors; Combo 10 mg/kg Qstat + 6 Gy IR, day 34 post injection",414.304 mm^3 and 54.872 mm^3 and 50.274 mm^3 and 397.488 mm^3 and 349.272 mm^3 and 222.95 mm^3 and 441 mm^3 and 1009.49 mm^3
same,flank tumor volume,"U87 flank tumors; Quisinostat 10 mg/kg IP MWF, day 13 post injection",95.2875 mm^3 and 73.75 mm^3 and 78.4195 mm^3 and 109.8 mm^3 and 67.5 mm^3 and 101.92 mm^3 and 86.756 mm^3 and 57.6 mm^3 and 136.416 mm^3 and 41.8275 mm^3
same,flank tumor volume,"U87 flank tumors; Quisinostat 10 mg/kg IP MWF, day 17 post injection",210.7 mm^3 and 60.025 mm^3 and 67.76 mm^3 and 121.838 mm^3 and 70 mm^3 and 176.418 mm^3 and 85.054 mm^3 and 154.638 mm^3 and 242.76 mm^3 and 103.823 mm^3
same,flank tumor volume,"U87 flank tumors; Quisinostat 10 mg/kg IP MWF, day 20 post injection",451.315 mm^3 and 83.1875 mm^3 and 86.756 mm^3 and 196.02 mm^3 and 52.9 mm^3 and 139.24 mm^3 and 89.056 mm^3 and 128.797 mm^3 and 283.279 mm^3 and 129.762 mm^3
same,flank tumor volume,"U87 flank tumors; Quisinostat 10 mg/kg IP MWF, day 27 post injection",1576.6 mm^3 and 97.556 mm^3 and 122.247 mm^3 and 660 mm^3 and 99.0945 mm^3 and 314.792 mm^3 and 96.9105 mm^3 and 423.864 mm^3 and 686.07 mm^3 and 596.712 mm^3
same,flank tumor volume,"U87 flank tumors; Quisinostat 10 mg/kg IP MWF, day 31 post injection",2338.49 mm^3 and 75 mm^3 and 125.736 mm^3 and 1098.08 mm^3 and 116.614 mm^3 and 483.181 mm^3 and 162.729 mm^3 and 576 mm^3 and 626.336 mm^3 and 1078.78 mm^3
same,flank tumor volume,"U87 flank tumors; Quisinostat 10 mg/kg IP MWF, day 34 post injection",2338.49 mm^3 and 62.5 mm^3 and 144.652 mm^3 and 1381.2 mm^3 and 108.192 mm^3 and 501 mm^3 and 248.832 mm^3 and 786.52 mm^3 and 822.197 mm^3 and 1622.4 mm^3
same,"mean tumor volume, fold less than in vehicle-treated mice","U87 flank tumors; U87 flank, QST 10 mg/kg + IR 6 Gy combination, at study completion",approximately 4.5 fold
same,"%stability in human plasma, mean","[1]; 10 nM, 0 hrs",100.0 % of control
same,"stability in human plasma, [QST], % of control","[1]; 10 nM, 0 hrs",96.2 % of control and 101.9 % of control
same,"stability in human plasma, [QST], % of control","[1]; 10 nM, 2 hrs",98.7 % of control and 101.4 % of control and 99.6 % of control
same,"%stability in human plasma, mean","[1]; 10 nM, 6 hrs",99.5 % of control
same,"stability in human plasma, [QST], % of control","[1]; 10 nM, 6 hrs",100.4 % of control and 102 % of control and 96.1 % of control
same,"%stability in human plasma, mean","[1]; 10 nM, 24 hrs",97.7 % of control
same,"stability in human plasma, [QST], % of control","[1]; 10 nM, 24 hrs",93.7 % of control and 94.6 % of control and 104.9 % of control
same,"%stability in human plasma, mean","[1]; 100 nM, 0 hrs",100.0 % of control
same,"stability in human plasma, [QST], % of control","[1]; 100 nM, 0 hrs",96.3 % of control and 100 % of control and 103.7 % of control
same,"%stability in human plasma, mean","[1]; 100 nM, 2 hrs",102.1 % of control
same,"stability in human plasma, [QST], % of control","[1]; 100 nM, 2 hrs",105.4 % of control and 102.2 % of control and 98.8 % of control
same,"%stability in human plasma, mean","[1]; 100 nM, 6 hrs",103.6 % of control
same,"stability in human plasma, [QST], % of control","[1]; 100 nM, 6 hrs",105.9 % of control and 102.8 % of control and 102 % of control
same,"%stability in human plasma, mean","[1]; 100 nM, 24 hrs",99.0 % of control
same,"stability in human plasma, [QST], % of control","[1]; 100 nM, 24 hrs",101.6 % of control and 97 % of control and 98.2 % of control
same,stability in human plasma,[1]; 37°C,completely stable

# Source: paper PMC10721329, “Quisinostat is a brain-penetrant radiosensitizer in glioblastoma” (JCI Insight, 2023)
